Legend:
[1] = system: Enterococcus faecalis 117; test: Comparison of glucoside substrates in semi-solid Columbia medium (Example 7); assay type: cell-based; details: 0.05 g/l + iron citrate 0.05 g/l
Listeria ivanovii 018 = test: β-glucosidase detection in API strip wells (Example 6); details: 0.12 g/l + iron citrate 0.05 g/l
Listeria seeligeri 080 = test: as above; details: 0.12 g/l + iron citrate 0.05 g/l
[2] = system: Klebsiella pneumoniae 023; test: as above; details: 0.12 g/l + iron citrate 0.05 g/l
Enterococcus faecium 009 = test: as above; details: 0.12 g/l + iron citrate 0.05 g/l
Escherichia coli 115 = test: β-galactosidase detection in semi-solid Columbia medium (Example 1); assay type: cell-based
Proteus penneri = test: β-galactosidase detection on semi-solid medium, clinical and environmental strains (Example 2); assay type: cell-based; details: 50 mg/l + iron citrate 500 mg/l; 18 hours; 1 strain tested
Morganella morganii = test: as above; assay type: cell-based; details: 50 mg/l + iron citrate 500 mg/l; 18 hours; 12 strains tested
Shigella boydii = test: as above; assay type: cell-based; details: 50 mg/l + iron citrate 500 mg/l; 18 hours; 1 strain tested
Hafnia alvei = test: as above; assay type: cell-based; details: 50 mg/l + iron citrate 500 mg/l; 18 hours; 10 strains tested
[3] = system: Klebsiella pneumoniae 023; test: β-galactosidase detection in semi-solid Columbia medium (Example 1); assay type: cell-based
Enterobacter aerogenes = test: β-galactosidase detection on semi-solid medium, clinical and environmental strains (Example 2); assay type: cell-based; details: 50 mg/l + iron citrate 500 mg/l; 18 hours; 9 strains tested
Shigella dysenteriae = assay type: cell-based; details: 50 mg/l + iron citrate 500 mg/l; 18 hours; 2 strains tested
Klebsiella pneumoniae = test: β-galactosidase detection on semi-solid medium, clinical and environmental strains (Example 2); assay type: cell-based; details: 50 mg/l + iron citrate 500 mg/l; 18 hours; 19 strains tested
Aeromonas caviae = test: as above; assay type: cell-based; details: 50 mg/l + iron citrate 500 mg/l; 18 hours; 7 strains tested
Escherichia hermannii = test: as above; assay type: cell-based; details: 50 mg/l + iron citrate 500 mg/l; 18 hours; 1 strain tested
[4] = system: Enterococcus faecalis 117; test: β-galactosidase detection in semi-solid Columbia medium (Example 1); assay type: cell-based
[5] = system: 367 different strains collected from clinical and environmental specimens; test: β-galactosidase detection on semi-solid medium, all strains together (Example 2); assay type: cell-based; details: 18 hours at 37° C.
Klebsiella oxytoca = test: β-galactosidase detection on semi-solid medium, clinical and environmental strains (Example 2); assay type: cell-based; details: 50 mg/l + iron citrate 500 mg/l; 18 hours; 13 strains tested
Salmonella spp. = test: as above; assay type: cell-based; details: 50 mg/l + iron citrate 500 mg/l; 18 hours; 64 strains tested
Providencia stuartii = test: as above; assay type: cell-based; details: 50 mg/l + iron citrate 500 mg/l; 18 hours; 10 strains tested
[6] = system: Providencia alcalifaciens; test: as above; assay type: cell-based; details: 50 mg/l + iron citrate 500 mg/l; 18 hours; 3 strains tested
[7] = system: Yersinia pseudotuberculosis; assay type: cell-based; details: 50 mg/l + iron citrate 500 mg/l; 18 hours; 3 strains tested
Acinetobacter spp. = test: β-galactosidase detection on semi-solid medium, clinical and environmental strains (Example 2); assay type: cell-based; details: 50 mg/l + iron citrate 500 mg/l; 18 hours; 53 strains tested

Compound: O=C1c2ccccc2C(=O)c2c1ccc(O[C@@H]1O[C@H](CO)[C@@H](O)[C@H](O)[C@H]1O)c2O [Alizarin-2-β-D-glucoside]
- Color ([1]; 18 H): Purple
- Intensity ([1]; 18 H): 3.5 arbitrary units
- Color ([1]; 24 H): Purple
- Intensity ([1]; 24 H): 4 arbitrary units
- Color ([1]; 48 H): Purple
- Intensity ([1]; 48 H): 4 arbitrary units
- Color observed (Listeria ivanovii 018; 4 H): Purple
- Color observed (Listeria ivanovii 018; 24 H): Purple
- Color observed (Listeria seeligeri 080; 4 H): Purple
- Color observed (Listeria seeligeri 080; 24 H): Purple
- Color observed ([2]; 4 H): Purple
- Color observed ([2]; 24 H): Purple
- Color observed (Enterococcus faecium 009; 4 H): Purple
- Color observed (Enterococcus faecium 009; 24 H): Purple

Compound: O=C1c2ccccc2C(=O)c2c1ccc(O[C@@H]1O[C@H](CO)[C@H](O)[C@H](O)[C@H]1O)c2O [Alizarin-2-β-D-galactoside]
- Color (Escherichia coli 115; 0.01 g/l + iron citrate, 18 H): purple
- Intensity (Escherichia coli 115; 0.01 g/l + iron citrate, 18 H): 0.3
- Color (Escherichia coli 115; 0.01 g/l + iron citrate, 24 H): purple
- Intensity (Escherichia coli 115; 0.01 g/l + iron citrate, 24 H): 0.3
- Color (Escherichia coli 115; 0.01 g/l + iron citrate, 48 H): purple
- Intensity (Escherichia coli 115; 0.01 g/l + iron citrate, 48 H): 0.5
- Color (Escherichia coli 115; 0.03 g/l + iron citrate, 18 H): purple
- Intensity (Escherichia coli 115; 0.03 g/l + iron citrate, 18 H): 2.7
- Color (Escherichia coli 115; 0.03 g/l + iron citrate, 24 H): purple
- Intensity (Escherichia coli 115; 0.03 g/l + iron citrate, 24 H): 2.7
- Color (Escherichia coli 115; 0.03 g/l + iron citrate, 48 H): purple
- Intensity (Escherichia coli 115; 0.03 g/l + iron citrate, 48 H): 3
- Color (Escherichia coli 115; 0.05 g/l + iron citrate, 18 H): purple
- Intensity (Escherichia coli 115; 0.05 g/l + iron citrate, 18 H): 3.5
- Color (Escherichia coli 115; 0.05 g/l + iron citrate, 24 H): purple
- Intensity (Escherichia coli 115; 0.05 g/l + iron citrate, 24 H): 3.5
- Color (Escherichia coli 115; 0.05 g/l + iron citrate, 48 H): purple
- Intensity (Escherichia coli 115; 0.05 g/l + iron citrate, 48 H): 3.5
- Color (Escherichia coli 115; 0.08 g/l + iron citrate, 18 H): purple
- Intensity (Escherichia coli 115; 0.08 g/l + iron citrate, 18 H): 4
- Color (Escherichia coli 115; 0.08 g/l + iron citrate, 24 H): purple
- Intensity (Escherichia coli 115; 0.08 g/l + iron citrate, 24 H): 4
- Color (Escherichia coli 115; 0.08 g/l + iron citrate, 48 H): purple
- Intensity (Escherichia coli 115; 0.08 g/l + iron citrate, 48 H): 4
- percentage of positive strains (Proteus penneri): 0%
- percentage of positive strains (Morganella morganii): 0%
- percentage of positive strains (Shigella boydii): 0%
- percentage of positive strains (Hafnia alvei): 80%
- Color ([3]; 0.03 g/l + iron citrate, 18 H): purple
- Intensity ([3]; 0.03 g/l + iron citrate, 18 H): 0.3
- Color ([3]; 0.03 g/l + iron citrate, 24 H): purple
- Intensity ([3]; 0.03 g/l + iron citrate, 24 H): 0.3
- Color ([3]; 0.03 g/l + iron citrate, 48 H): purple
- Intensity ([3]; 0.03 g/l + iron citrate, 48 H): 0.5
- Color ([3]; 0.05 g/l + iron citrate, 18 H): purple
- Intensity ([3]; 0.05 g/l + iron citrate, 18 H): 0.8
- Color ([3]; 0.05 g/l + iron citrate, 24 H): purple
- Intensity ([3]; 0.05 g/l + iron citrate, 24 H): 1
- Color ([3]; 0.05 g/l + iron citrate, 48 H): purple
- Intensity ([3]; 0.05 g/l + iron citrate, 48 H): 1
- Color ([3]; 0.08 g/l + iron citrate, 18 H): purple
- Intensity ([3]; 0.08 g/l + iron citrate, 18 H): 1.5
- Color ([3]; 0.08 g/l + iron citrate, 24 H): purple
- Intensity ([3]; 0.08 g/l + iron citrate, 24 H): 1.5
- Color ([3]; 0.08 g/l + iron citrate, 48 H): purple
- Intensity ([3]; 0.08 g/l + iron citrate, 48 H): 1.7
- percentage of positive strains (Enterobacter aerogenes): 100%
- percentage of positive strains (Shigella dysenteriae): 0%
- percentage of positive strains (Klebsiella pneumoniae): 100%
- percentage of positive strains (Aeromonas caviae): 86%
- percentage of positive strains (Escherichia hermannii): 100%
- Color ([4]; 0.01 g/l + iron citrate, 18 H): purple
- Intensity ([4]; 0.01 g/l + iron citrate, 18 H): 0.3
- Color ([4]; 0.01 g/l + iron citrate, 24 H): purple
- Intensity ([4]; 0.01 g/l + iron citrate, 24 H): 0.6
- Color ([4]; 0.01 g/l + iron citrate, 48 H): purple
- Intensity ([4]; 0.01 g/l + iron citrate, 48 H): 0.6
- Color ([4]; 0.03 g/l + iron citrate, 18 H): purple
- Intensity ([4]; 0.03 g/l + iron citrate, 18 H): 2.7
- Color ([4]; 0.03 g/l + iron citrate, 24 H): purple
- Intensity ([4]; 0.03 g/l + iron citrate, 24 H): 3
- Color ([4]; 0.03 g/l + iron citrate, 48 H): purple
- Intensity ([4]; 0.03 g/l + iron citrate, 48 H): 3.5
- Color ([4]; 0.05 g/l + iron citrate, 18 H): purple
- Intensity ([4]; 0.05 g/l + iron citrate, 18 H): 4
- Color ([4]; 0.05 g/l + iron citrate, 24 H): purple
- Intensity ([4]; 0.05 g/l + iron citrate, 24 H): 4
- Color ([4]; 0.05 g/l + iron citrate, 48 H): purple
- Intensity ([4]; 0.05 g/l + iron citrate, 48 H): 4
- Color ([4]; 0.08 g/l + iron citrate, 18 H): purple
- Intensity ([4]; 0.08 g/l + iron citrate, 18 H): 4
- Color ([4]; 0.08 g/l + iron citrate, 24 H): purple
- Intensity ([4]; 0.08 g/l + iron citrate, 24 H): 4
- Color ([4]; 0.08 g/l + iron citrate, 48 H): purple
- Intensity ([4]; 0.08 g/l + iron citrate, 48 H): 4
- color of colonies expressing β-galactosidase activity ([5]; 50 mg/l + iron citrate 500 mg/l): purple
- strains that selectively hydrolyzed this substrate (not the reference substrate) ([5]; of 367 strains): Eight
- percentage of positive strains (Klebsiella oxytoca): 100%
- percentage of positive strains (Salmonella spp.): 0%
- percentage of positive strains (Providencia stuartii): 0%
- percentage of positive strains [6]: 0%
- percentage of positive strains [7]: 67%
- percentage of positive strains (Acinetobacter spp.): 0%
